According to patent publication US20250163068A1, “COMPOUNDS AND THEIR METHODS OF USE” (Praxis Precision Medicines, Inc., priority 2016, published 2025):
Like-named read-outs stand apart in the source and are kept apart here.

Experiments:
CYP1A2 = CYP1A2 (Homo sapiens (Human), UniProt P05177); test: CYP1A2 inhibition in human liver microsomes; assay type: in vitro ADME
Experimental: The specific marker metabolites are measured with LC/MS/MS. The remaining enzymatic activities and inhibitory potency IC50 are determined. Microsomes are removed out of the −80° C. freezer to thaw on ice and 20 μL of the substrates solution added to the corresponding wells. […] Then 158 μL of the HLM working solution was added to all wells of the incubation plate. The plate was pre-warmed for about 10 min using a 37° C. water bath. Then 20 μL of the NADPH cofactor solution was added to all incubation wells, mixed and incubated for 10 minutes at 37° C. water bath. The reaction is terminated by adding 400 μL cold stop solution (200 ng/mL Tolbutamide and 200 ng/mL Labetalol in ACN). […] Finally 200 μL of the supernatant was transferred to 100 μL HPLC water, shaken for 10 min and analyzed by LC/MS/MS.

human Nav1.6 (hNav1.6) = human Nav1.6 (hNav1.6) (Homo sapiens (Human), UniProt Q9UQD0); test: Inhibition of late sodium current (INaL) at hNav1.6, PatchXpress electrophysiology; assay type: cell-based; conditions: 1 μM compound; HEK-293 cells expressing recombinant hNav1.6; late current evoked by 300 nM ATX-II
Chain of human Nav1.6 (hNav1.6) (Q9UQD0 whole entry): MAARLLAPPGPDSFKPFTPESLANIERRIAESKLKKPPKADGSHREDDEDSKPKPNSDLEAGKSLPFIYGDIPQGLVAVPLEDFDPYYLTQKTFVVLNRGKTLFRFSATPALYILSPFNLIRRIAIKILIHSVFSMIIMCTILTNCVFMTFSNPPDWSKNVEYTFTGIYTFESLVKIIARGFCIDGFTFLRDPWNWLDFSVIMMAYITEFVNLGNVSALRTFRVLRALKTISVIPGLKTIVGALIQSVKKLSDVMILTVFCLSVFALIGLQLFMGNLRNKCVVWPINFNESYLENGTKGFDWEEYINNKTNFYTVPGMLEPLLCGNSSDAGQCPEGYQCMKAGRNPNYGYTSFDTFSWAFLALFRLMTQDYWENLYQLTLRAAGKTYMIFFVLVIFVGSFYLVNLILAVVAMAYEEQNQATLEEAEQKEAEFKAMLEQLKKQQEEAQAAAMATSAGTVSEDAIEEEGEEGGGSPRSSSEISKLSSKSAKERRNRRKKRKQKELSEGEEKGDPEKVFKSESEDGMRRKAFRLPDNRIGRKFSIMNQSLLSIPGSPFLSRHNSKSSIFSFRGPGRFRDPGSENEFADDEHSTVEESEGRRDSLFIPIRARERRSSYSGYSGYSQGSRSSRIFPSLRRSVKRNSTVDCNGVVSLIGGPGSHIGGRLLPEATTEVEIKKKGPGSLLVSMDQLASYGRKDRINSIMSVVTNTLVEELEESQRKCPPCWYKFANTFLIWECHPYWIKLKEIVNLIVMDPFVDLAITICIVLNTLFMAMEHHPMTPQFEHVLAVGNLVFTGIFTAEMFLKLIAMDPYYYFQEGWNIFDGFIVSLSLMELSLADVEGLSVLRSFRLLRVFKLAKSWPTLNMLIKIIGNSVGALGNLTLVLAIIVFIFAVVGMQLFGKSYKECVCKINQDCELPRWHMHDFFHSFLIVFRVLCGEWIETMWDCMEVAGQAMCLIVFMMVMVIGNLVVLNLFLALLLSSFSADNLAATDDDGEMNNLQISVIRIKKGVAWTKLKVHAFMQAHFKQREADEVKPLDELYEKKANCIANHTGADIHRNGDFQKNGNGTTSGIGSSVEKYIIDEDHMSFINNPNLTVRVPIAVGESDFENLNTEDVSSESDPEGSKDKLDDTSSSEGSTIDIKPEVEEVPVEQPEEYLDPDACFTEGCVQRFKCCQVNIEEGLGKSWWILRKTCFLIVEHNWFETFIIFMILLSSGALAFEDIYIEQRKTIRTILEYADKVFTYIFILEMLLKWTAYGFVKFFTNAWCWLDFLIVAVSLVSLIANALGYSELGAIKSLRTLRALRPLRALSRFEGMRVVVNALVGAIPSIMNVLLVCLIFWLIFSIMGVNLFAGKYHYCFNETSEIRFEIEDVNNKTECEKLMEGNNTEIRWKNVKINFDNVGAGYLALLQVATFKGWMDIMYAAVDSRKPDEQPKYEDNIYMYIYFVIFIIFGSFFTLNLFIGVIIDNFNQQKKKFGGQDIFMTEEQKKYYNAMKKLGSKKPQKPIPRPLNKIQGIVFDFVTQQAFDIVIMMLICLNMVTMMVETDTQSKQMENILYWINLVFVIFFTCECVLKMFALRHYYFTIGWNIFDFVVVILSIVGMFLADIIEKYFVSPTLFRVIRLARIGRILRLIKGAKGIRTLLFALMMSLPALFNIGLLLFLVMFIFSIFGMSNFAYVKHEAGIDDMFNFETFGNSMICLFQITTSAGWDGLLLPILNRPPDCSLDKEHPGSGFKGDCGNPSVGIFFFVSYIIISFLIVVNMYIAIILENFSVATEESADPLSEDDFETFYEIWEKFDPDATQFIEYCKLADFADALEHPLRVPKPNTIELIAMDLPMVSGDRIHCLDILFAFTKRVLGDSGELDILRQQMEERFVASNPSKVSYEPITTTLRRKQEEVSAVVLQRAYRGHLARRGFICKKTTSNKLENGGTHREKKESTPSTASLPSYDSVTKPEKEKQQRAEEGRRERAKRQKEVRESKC
Experimental: Functional characterization of exemplary compounds to modulate INaL expressed by the Nav1.6 voltage-gated sodium channel was accomplished using the PatchXpress™ high throughput electrophysiology platform (Molecular Devices, Sunnyvale, CA). HEK-293 cells expressing recombinant, human Nav1.6 (hNav1.6)were grown in DMEM/high-glucose Dulbecco's modified, 10% FBS, 2 mM sodium pyruvate, 10 mM HEPES and 400 μg/mL G418. Cells were grown to 50%-80% confluency prior to harvesting. […] The onboard liquid handling facility of the PatchXpress was used for dispensing cells and applying test compounds. Nav late currents were evoked by the application of 300 nM ATX-II. […] INaL amplitude and stability were determined by analyzing the mean current amplitude over the final 20 ms of the test pulse. […] Percent steady-state inhibition of INaL was calculated as: [(INaL_compound)/(INaL_control)]*100, where INaL_compound and INaL_control represent INaL recorded in the presence or absence of compound, respectively.

[1] = PK rat clearance experiment; conditions: male Sprague-Dawley rats, single intravenous bolus 0.5 mg/kg, plasma
Experimental: (§1) The IV dosing solution was prepared freshly on the dosing day. Test article (0.5 mg/kg) was prepared in a vehicle, for example, consisting of 5% DMSO/5% solutol/90% water. The concentrations of test article in all dosing solutions were determined by HPLC/UV. Three male Sprague-Dawley rats were used in this study. The animals were confirmed healthy before being assigned to the study. Each animal was given a unique identification number which was marked on the tail or the ear, and written on the cage card. All animals were fasted overnight before dosing and the food was returned at 4 hours post dosing. Water was provided to all animals ad libitum during the fasting period. Animals were weighed prior to dose administration on the day of dosing for calculating the actual dose volume. The body weights were in the range from 212 g to 223 g for males. All animals received test article by single intravenous bolus administration at 0.5 mg/kg. Approximately 0.2 mL blood was collected at each time point via jugular vein from each study animal. […] All blood samples were transferred into pre-labeled plastic micro centrifuge tubes and mixed with the pre-loaded anti-coagulant K2EDTA (5 μL, 0.5 M). Plasma samples were then prepared by centrifuging the blood samples. All plasma samples were then quickly frozen over dry ice and kept at −60° C. or lower until LC/MS/MS analysis. The concentrations of test article in plasma were determined by using a quantitative bioanalytical LC/MS/MS method. The lower limit of quantitation (LLOQ) for test article in plasma was 1 ng/mL, and the upper limit of quantitation (ULOQ) in plasma was 3000 ng/mL. The plasma concentration of test article in rats was subjected to a non compartmental pharmacokinetic analysis by using the Phoenix WinNonlin software (version 6.3, Pharsight, Mountain View, CA).
(§2) The linear/log trapezoidal rule was applied in obtaining the PK parameters.

[2] = rat, in vivo, iv, 0.5 mg/kg
Experimental: as §1, §2

[3] = pooled human liver microsomes, substrate Phenacetin, read-out: CYP1A2 IC50 mean

Chain of CYP1A2 (P05177 whole entry): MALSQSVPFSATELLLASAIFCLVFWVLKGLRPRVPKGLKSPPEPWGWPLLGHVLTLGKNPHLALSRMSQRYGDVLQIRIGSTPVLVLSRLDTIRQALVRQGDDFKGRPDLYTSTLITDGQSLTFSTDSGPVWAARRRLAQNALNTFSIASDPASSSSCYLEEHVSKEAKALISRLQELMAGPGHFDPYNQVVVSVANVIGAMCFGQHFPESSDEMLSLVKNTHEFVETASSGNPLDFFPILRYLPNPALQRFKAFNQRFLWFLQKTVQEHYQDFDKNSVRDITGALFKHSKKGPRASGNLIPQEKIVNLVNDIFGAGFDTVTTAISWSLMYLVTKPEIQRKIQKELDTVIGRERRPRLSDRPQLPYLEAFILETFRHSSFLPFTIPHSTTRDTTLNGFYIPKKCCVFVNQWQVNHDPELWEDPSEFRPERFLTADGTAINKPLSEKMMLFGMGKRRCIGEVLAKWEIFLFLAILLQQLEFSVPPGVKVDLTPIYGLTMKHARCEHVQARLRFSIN

## COc1cc(OC(F)(F)F)ccc1-c1cn2c(C(F)(F)F)nnc2cn1 [Compound 70]
CYP1A2; microsomes
  IC50: < 1 µM

## COc1cc(OC(F)(F)F)ccc1-c1cn2c(C(F)F)nnc2cn1 [Compound 48]
CYP1A2; microsomes
  IC50: < 1 µM

## FC(F)(F)c1ccc(-c2ccc3nnc(C(F)(F)F)n3n2)cc1 [Compound 1]
CYP1A2; microsomes
  IC50: < 1 µM

## FC(F)(F)Oc1ccc(-c2ccc3nnc(C4CC4(F)F)n3n2)cc1 (stereo not drawn) [Compound 46]
Human Nav1.6 (hNav1.6)
  INaL v1.6 (1 μM, % Inhibition): C (inhibition of greater than 70%)
CYP1A2; [3]
  IC50: 1 to 15 µM
[1]
  Clearance: 0.282 L/h/kg
  T1/2: 4.5 h

## C[C@@H](Oc1ncc(-c2cn3c(C(F)F)nnc3cn2)cc1F)C(F)(F)F [Compound 134]
Human Nav1.6 (hNav1.6)
  INaL v1.6 (1 μM, % Inhibition): C (inhibition of greater than 70%)
CYP1A2; microsomes
  IC50: > 30 µM
[2]
  Clearance: 0.654 L/h/kg
  T1/2: 2.6 h

## Fc1cc(-c2cn3c(C(F)(F)F)nnc3cn2)ccc1OC(F)(F)F [Compound 79]
CYP1A2; microsomes
  IC50: < 1 µM

## Cc1cc(-c2ccc3nnc(C(F)(F)F)n3n2)ccc1C(F)(F)F [Compound 98]
CYP1A2; microsomes
  IC50: < 1 µM

## COC(F)(F)c1nnc2cnc(-c3ccc(OC(F)(F)F)cc3)cn12 [Compound 97]
CYP1A2; microsomes
  IC50: < 1 µM

## COCc1cc(OC(F)(F)F)ccc1-c1cn2c(C(F)(F)F)nnc2cn1 [Compound 66]
Human Nav1.6 (hNav1.6)
  INaL v1.6 (1 μM, % Inhibition): C (inhibition of greater than 70%)
CYP1A2; microsomes
  IC50: 1 to 15 µM

## FC(F)c1nnc2cnc(-c3ccc(OC(F)(F)F)cc3)cn12 [Compound 47]
CYP1A2; microsomes
  IC50: < 1 µM

## Fc1cc(-c2cn3c(C(F)F)nnc3cn2)cnc1OCC(F)(F)F [Compound 68]
Human Nav1.6 (hNav1.6)
  INaL v1.6 (1 μM, % Inhibition): B (inhibition of between about 30% to about 70%)
CYP1A2; [3]
  IC50: > 30 µM
[1]
  Clearance: 0.948 L/h/kg
  T1/2: 1.5 h

## Fc1cc(-c2cn3c(C(F)(F)F)nnc3cn2)cnc1OC1CC(F)(F)C1 [Compound 84]
Human Nav1.6 (hNav1.6)
  INaL v1.6 (1 μM, % Inhibition): C (inhibition of greater than 70%)
CYP1A2; [3]
  IC50: 1 to 15 µM
[1]
  Clearance: 1.31 L/h/kg
  T1/2: 2.1 h

## FC(F)Oc1ccc(-c2ccc3nnc(C(F)(F)F)n3n2)cc1 [Compound 116]
CYP1A2; microsomes
  IC50: < 1 µM

## FC(F)(F)c1ccc(-c2cn3c(C(F)(F)F)nnc3cn2)cc1 [Compound 62]
CYP1A2; microsomes
  IC50: < 1 µM

## FC(F)(F)OCc1ccc(-c2ccc3nnc(C(F)(F)F)n3n2)cc1 [Compound 118]
CYP1A2; microsomes
  IC50: < 1 µM

## FC(F)(F)Oc1ccc(-c2cn3c(C(F)(F)F)nnc3cn2)cc1 [Compound 56]
CYP1A2; [3]
  IC50: < 1 µM

## Fc1cc(C(F)(F)F)ccc1-c1cn2c(C(F)(F)F)nnc2cn1 [Compound 76]
CYP1A2; microsomes
  IC50: < 1 µM
